Holding throughout (type): physicochemical
Series [1] in a line: Assessment of pH solubility of crystalline salts in buffers. The procedure:
1) Assessment of pH Solubility The solubility of crystal form B of hydrochloride, crystal form C of p-toluenesulfonate, crystal form C of sulfate, and crystal form C of hydrobromide under different pH conditions were determined and compared, and the results were shown in Table 8. All the crystalline salts had low solubility in buffers of pH 3.0 and 5.0.

Series [2] is described as follows: Assessment of solid stability (XRPD and HPLC after storage). Particulars: for Change of crystal form, yes/no: XRPD after 40° C./100% RH/7 d; for HPLC (area %) 40° C./100% RH/7 d: after 40° C./100% RH for 1 week; for HPLC (area %) Initiation: initial, before storage; for Stability relative to OAD2 dihydrochloride (in words): summary statement. The procedure: The stability of crystal form B of hydrochloride, crystal form C of sulfate, crystal form C of p-toluenesulfonate and compound I was compared. After placement under a 40° C./100% RH condition for 1 week, physical and chemical stability was assessed by means of XRPD and HPLC, respectively, and the results were shown in Table 10.

Series [3] is described as follows: Hygroscopicity, dynamic moisture adsorption (DVS) test. The settings on record: for Moisture adsorption rate: DVS, 25° C., 80% RH; for Change of crystal form, yes/no: before and after the DVS test. The procedure:
5. Dynamic moisture adsorption (DVS):
Dynamic moisture adsorption (DVS) curves were collected on DVS Intrinsic of Surface Measurement Systems (SMS). The relative humidity at 25° C. was corrected with the deliquescent points of LiCl, Mg (NO3) 2 and KCl.
Five crystalline salts were subject to DVS test (25° C., 80% RH).

The results in this text go back to patent publication US12421245B2, “Pharmaceutically acceptable acid salt of free base of GLP1 receptor agonist, and preparation method therefor” (Hangzhou Zhongmei Huadong Pharmaceutical Co., Ltd., priority 2020, dated 2025).

Where a name gives a salt, the structure may show the parent alone.

As a reminder, the Solubility is how much of the substance goes into solution per volume.

Take `CC[C@@H](c1ccccc1)N1Cc2cc3c(cc2C[C@H]1C(=O)N[C@@H](Cc1ccc(-c2ccnc(C)c2C)cc1)C(=O)O)OC[C@H](c1ccc(OCc2ccc(Cl)c(Cl)c2)cc1)O3` [Crystal form C of p-toluenesulfonate, (S)-2-(3S,8S)-3-(4-(3,4-dichlorobenzyloxy)phenyl-7-((S)-1-phenylpropyl)-2,3,6,7,8,9-hexahydro-[1,4]-dioxino[2,3-g]isoquinolin-8-ylformylamino)-3-(4-(2,3-dimethylpyridin-4-yl)phenyl)propionic acid]: in series [1] (buffer of pH 1.0), the “Solubility compared with other crystalline salts (in words)” value is given as “significantly higher solubility than other crystalline salts”. Moreover, the Solubility is 1423 µg/mL in series [1] (pH 1.0); 118 µg/mL in series [1] (pH 2.0); 1 µg/mL in series [1] (pH 3.0); 1 µg/mL in series [1] (pH 5.0); 93 µg/mL in series [1] (pH 7.0). Moreover, in series [2] (40° C./100% RH, 1 week), the “Solid stability (in words)” value is listed as “the best stability”. Further, the “Change of crystal form, yes/no” value in series [2] and in series [3] was “No” each time. Besides, the “HPLC (area %) 40° C./100% RH/7 d” value in series [2] worked out at 98.87 area %. The “HPLC (area %) Initiation” value in series [2] was 98.85 area %. Besides, the “Stability relative to OAD2 dihydrochloride (in words)” value in series [2] is on record as “superior stability relative to OAD2 dihydrochloride”. Further, the Moisture adsorption rate in series [3] amounted to 0.6%.

Turning to `CC[C@@H](c1ccccc1)N1Cc2cc3c(cc2C[C@H]1C(=O)N[C@@H](Cc1ccc(-c2ccnc(C)c2C)cc1)C(=O)O)OC[C@H](c1ccc(OCc2ccc(Cl)c(Cl)c2)cc1)O3` [Crystal form C of sulfate, (S)-2-(3S,8S)-3-(4-(3,4-dichlorobenzyloxy)phenyl-7-((S)-1-phenylpropyl)-2,3,6,7,8,9-hexahydro-[1,4]-dioxino[2,3-g]isoquinolin-8-ylformylamino)-3-(4-(2,3-dimethylpyridin-4-yl)phenyl)propionic acid], the Solubility in series [1] (pH 1.0) amounted to 811 µg/mL; in series [1] (pH 2.0) it was 74 µg/mL; in series [1] (pH 3.0), 1 µg/mL; in series [1] (pH 5.0) it was 1 µg/mL; in series [1] (pH 7.0) it was 96 µg/mL. The “Change of crystal form, yes/no” value in series [2] and in series [3] was “No” throughout. In addition, in series [2], the “HPLC (area %) 40° C./100% RH/7 d” value was determined as 98.78 area %. For the same molecule, the “HPLC (area %) Initiation” value in series [2] stood at 98.85 area %. Besides, the “Stability relative to OAD2 dihydrochloride (in words)” value in series [2] is given as “superior stability relative to OAD2 dihydrochloride”. The molecule also yielded a Moisture adsorption rate in series [3] of 3.2%.

For `CC[C@@H](c1ccccc1)N1Cc2cc3c(cc2C[C@H]1C(=O)N[C@@H](Cc1ccc(-c2ccnc(C)c2C)cc1)C(=O)O)OC[C@H](c1ccc(OCc2ccc(Cl)c(Cl)c2)cc1)O3` [Crystal form C of hydrobromide, (S)-2-(3S,8S)-3-(4-(3,4-dichlorobenzyloxy)phenyl-7-((S)-1-phenylpropyl)-2,3,6,7,8,9-hexahydro-[1,4]-dioxino[2,3-g]isoquinolin-8-ylformylamino)-3-(4-(2,3-dimethylpyridin-4-yl)phenyl)propionic acid], the Solubility amounted to 496 µg/mL in series [1] (pH 1.0); 16 µg/mL in series [1] (pH 2.0); 1 µg/mL in series [1] (pH 3.0); 4 µg/mL in series [1] (pH 5.0); 39 µg/mL in series [1] (pH 7.0). In series [3], this molecule gave a Moisture adsorption rate of 1.4%. Moreover, the “Change of crystal form, yes/no” value in series [3] is listed as “No”.

On to `CC[C@@H](c1ccccc1)N1Cc2cc3c(cc2C[C@H]1C(=O)N[C@@H](Cc1ccc(-c2ccnc(C)c2C)cc1)C(=O)O)OC[C@H](c1ccc(OCc2ccc(Cl)c(Cl)c2)cc1)O3` [Crystal form B of hydrochloride, (S)-2-(3S,8S)-3-(4-(3,4-dichlorobenzyloxy)phenyl-7-((S)-1-phenylpropyl)-2,3,6,7,8,9-hexahydro-[1,4]-dioxino[2,3-g]isoquinolin-8-ylformylamino)-3-(4-(2,3-dimethylpyridin-4-yl)phenyl)propionic acid], for which the Solubility was determined as 381 µg/mL in series [1] (pH 1.0); 17 µg/mL in series [1] (pH 2.0); 2 µg/mL in series [1] (pH 3.0); 1 µg/mL in series [1] (pH 5.0); 109 µg/mL in series [1] (pH 7.0). Further, the “Change of crystal form, yes/no” value in series [2] and in series [3] was “No” in each case. In series [2], the “HPLC (area %) 40° C./100% RH/7 d” value was determined as 98.18 area %. Further, the “HPLC (area %) Initiation” value in series [2] is on record as 98.37 area %. Further, in series [2], the “Stability relative to OAD2 dihydrochloride (in words)” value is given as “superior stability relative to OAD2 dihydrochloride”. Also, the Moisture adsorption rate in series [3] is given as 0.8%.

The molecule `CC[C@@H](c1ccccc1)N1Cc2cc3c(cc2C[C@H]1C(=O)N[C@@H](Cc1ccc(-c2ccnc(C)c2C)cc1)C(=O)O)OC[C@H](c1ccc(OCc2ccc(Cl)c(Cl)c2)cc1)O3` [OAD2 dihydrochloride, (S)-2-(3S,8S)-3-(4-(3,4-dichlorobenzyloxy)phenyl-7-((S)-1-phenylpropyl)-2,3,6,7,8,9-hexahydro-[1,4]-dioxino[2,3-g]isoquinolin-8-ylformylamino)-3-(4-(2,3-dimethylpyridin-4-yl)phenyl)propionic acid dihydrochloride, reference compound] came in with a Moisture adsorption rate in series [3] (dihydrochloride) of 8.3%.
